# Substitutions are numbered along the chain they refer to. Where two headings read alike, the source gives them in different places.
# What was measured:
# humanBSEP = humanBSEP (Homo sapiens, UniProt O95342)
# Protocol: (§1) Measurement of the vesicular transport activity in case of Bsep: The transport activity measurements were carried out with purified membrane vesicles containing human, rat or mouse Bsep (ABCB11, sPgp) transporter isolated from baculovirus infected Sf9 (Spodoptera frugiperda)cells. The membrane preparations contain 5-16% closed, inside-out oriented, membrane vesicles. The transporter pumps the molecules inside of these vesicles. The vesicles can be separated by rapid filtration of the membrane suspension through a glass filter or through a nitrocellulose membrane (using vacuum).
# (§2) The quantitative determination of the transported molecule can be done in several ways, like: HPLC, LC/MS, but also fluorescent or radioactive labeling is also suitable. Tritium labeled substrates were used in the assays and the mode of detection was liquid-scintillation.
# (§3) Assay Design and Main Steps for Bsep • Prepare an appropriate concentration of membrane suspension in assay buffer; add the unlabeled and ^3H-labeled substrates to the suspension.
# mouseBsep = molecular target: T1, mouseBsep (Mus musculus, UniProt Q9QY30)
# T1 sequence (Q9QY30 1-1321): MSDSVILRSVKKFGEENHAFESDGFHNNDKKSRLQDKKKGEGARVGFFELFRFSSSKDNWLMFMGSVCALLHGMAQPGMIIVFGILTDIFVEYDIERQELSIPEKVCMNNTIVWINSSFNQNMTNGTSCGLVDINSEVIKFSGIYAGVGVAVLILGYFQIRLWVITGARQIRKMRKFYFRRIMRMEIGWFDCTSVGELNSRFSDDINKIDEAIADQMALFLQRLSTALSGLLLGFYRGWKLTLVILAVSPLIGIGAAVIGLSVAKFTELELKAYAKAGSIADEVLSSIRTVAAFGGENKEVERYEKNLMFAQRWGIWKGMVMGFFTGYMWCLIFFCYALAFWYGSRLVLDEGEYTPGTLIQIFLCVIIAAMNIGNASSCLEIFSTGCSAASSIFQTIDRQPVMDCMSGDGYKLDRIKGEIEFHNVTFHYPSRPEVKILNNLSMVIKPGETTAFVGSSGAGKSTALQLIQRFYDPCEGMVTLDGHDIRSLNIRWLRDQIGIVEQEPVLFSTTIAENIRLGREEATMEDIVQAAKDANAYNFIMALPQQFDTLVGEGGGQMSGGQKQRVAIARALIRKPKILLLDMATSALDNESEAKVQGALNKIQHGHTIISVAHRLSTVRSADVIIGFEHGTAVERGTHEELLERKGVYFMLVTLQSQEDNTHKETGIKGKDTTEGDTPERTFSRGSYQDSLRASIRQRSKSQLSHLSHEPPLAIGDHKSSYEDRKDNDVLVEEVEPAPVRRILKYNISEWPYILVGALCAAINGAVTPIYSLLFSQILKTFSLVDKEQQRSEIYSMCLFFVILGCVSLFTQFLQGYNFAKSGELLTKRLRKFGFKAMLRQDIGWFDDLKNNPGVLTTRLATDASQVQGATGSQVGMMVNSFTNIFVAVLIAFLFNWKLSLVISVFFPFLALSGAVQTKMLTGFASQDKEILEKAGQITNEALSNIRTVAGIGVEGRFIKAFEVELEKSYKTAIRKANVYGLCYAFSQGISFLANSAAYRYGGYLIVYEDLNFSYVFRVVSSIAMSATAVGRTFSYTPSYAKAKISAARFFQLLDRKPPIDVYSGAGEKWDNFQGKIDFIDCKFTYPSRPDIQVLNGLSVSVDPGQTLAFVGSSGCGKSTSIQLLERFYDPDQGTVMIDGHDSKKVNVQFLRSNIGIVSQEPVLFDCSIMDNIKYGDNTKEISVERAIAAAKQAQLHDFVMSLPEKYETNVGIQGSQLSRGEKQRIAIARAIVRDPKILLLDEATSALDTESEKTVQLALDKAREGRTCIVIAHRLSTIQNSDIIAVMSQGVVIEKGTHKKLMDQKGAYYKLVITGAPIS
# Protocol: as §1, §2, §3
# ratBsep = ratBsep (Rattus norvegicus, UniProt O70127)
# ratBsep, sequence (O70127 whole entry): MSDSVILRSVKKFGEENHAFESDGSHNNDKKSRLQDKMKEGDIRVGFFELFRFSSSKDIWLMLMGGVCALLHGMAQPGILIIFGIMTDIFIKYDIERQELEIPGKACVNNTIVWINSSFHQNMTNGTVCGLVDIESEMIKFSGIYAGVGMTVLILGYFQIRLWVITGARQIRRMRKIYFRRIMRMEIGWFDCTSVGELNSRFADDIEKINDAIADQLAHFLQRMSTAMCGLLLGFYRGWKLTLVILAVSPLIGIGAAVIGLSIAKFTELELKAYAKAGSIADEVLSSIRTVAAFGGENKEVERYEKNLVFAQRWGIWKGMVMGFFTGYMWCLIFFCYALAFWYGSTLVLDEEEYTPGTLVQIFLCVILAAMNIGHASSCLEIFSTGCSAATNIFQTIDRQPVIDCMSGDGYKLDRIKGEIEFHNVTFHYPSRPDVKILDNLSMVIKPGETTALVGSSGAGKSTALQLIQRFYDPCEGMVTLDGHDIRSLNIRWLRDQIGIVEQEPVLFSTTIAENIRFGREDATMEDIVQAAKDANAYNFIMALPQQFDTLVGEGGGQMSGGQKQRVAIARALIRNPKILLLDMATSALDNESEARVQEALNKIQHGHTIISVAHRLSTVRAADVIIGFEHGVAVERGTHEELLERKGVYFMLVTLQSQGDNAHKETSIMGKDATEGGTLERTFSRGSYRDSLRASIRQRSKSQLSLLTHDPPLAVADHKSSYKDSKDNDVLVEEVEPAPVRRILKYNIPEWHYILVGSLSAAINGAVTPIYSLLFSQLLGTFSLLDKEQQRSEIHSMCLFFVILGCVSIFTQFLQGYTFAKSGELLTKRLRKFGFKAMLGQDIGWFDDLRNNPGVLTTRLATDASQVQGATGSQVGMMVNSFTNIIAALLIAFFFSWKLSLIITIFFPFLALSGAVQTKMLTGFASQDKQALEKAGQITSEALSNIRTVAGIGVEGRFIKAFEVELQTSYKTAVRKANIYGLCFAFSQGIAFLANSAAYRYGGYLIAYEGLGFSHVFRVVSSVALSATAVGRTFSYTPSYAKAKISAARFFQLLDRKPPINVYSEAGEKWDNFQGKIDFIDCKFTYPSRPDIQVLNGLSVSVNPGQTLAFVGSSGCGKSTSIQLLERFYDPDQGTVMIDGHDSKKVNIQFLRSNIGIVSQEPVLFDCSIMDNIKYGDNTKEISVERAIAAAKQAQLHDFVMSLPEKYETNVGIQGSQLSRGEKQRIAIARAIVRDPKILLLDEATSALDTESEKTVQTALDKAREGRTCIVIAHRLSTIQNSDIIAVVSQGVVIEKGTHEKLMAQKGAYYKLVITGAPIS
# Protocol: as §1, §2, §3
# wild-type ABCG2 [1] = molecular target: T2, wild-type ABCG2 (Homo sapiens, UniProt Q9UNQ0); experiment: Vesicular transport assay, inside-out ABCG2-Sf9 membrane vesicles
# T2 sequence (Q9UNQ0 1-655): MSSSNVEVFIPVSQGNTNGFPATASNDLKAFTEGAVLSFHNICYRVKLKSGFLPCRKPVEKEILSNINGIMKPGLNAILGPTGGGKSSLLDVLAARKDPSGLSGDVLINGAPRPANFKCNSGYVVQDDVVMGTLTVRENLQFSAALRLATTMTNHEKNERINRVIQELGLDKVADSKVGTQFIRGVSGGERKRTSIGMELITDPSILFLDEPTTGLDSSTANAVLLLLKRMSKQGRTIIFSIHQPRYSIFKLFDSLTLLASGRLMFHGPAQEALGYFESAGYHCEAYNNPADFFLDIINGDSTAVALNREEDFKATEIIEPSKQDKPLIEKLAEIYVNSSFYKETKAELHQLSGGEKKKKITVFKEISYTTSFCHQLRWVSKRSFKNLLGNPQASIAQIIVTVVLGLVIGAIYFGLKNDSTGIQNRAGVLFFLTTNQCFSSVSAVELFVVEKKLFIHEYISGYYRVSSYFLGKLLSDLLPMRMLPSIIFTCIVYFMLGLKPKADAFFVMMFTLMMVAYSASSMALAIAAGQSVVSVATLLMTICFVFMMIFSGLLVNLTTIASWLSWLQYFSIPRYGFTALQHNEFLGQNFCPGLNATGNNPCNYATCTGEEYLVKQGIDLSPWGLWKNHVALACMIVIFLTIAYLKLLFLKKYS
# Protocol: as §1, with “activity:” for “activity in case of Bsep:”, “ABCG2” for “human, rat”, “or” for “or mouse”, “Bsep” for “Bsep (ABCB11, sPgp) transporter”, “frugiperda) cells or mammalian (ABCG2-M) cells.” for “frugiperda)cells.”, “rapidly filtrating” for “rapid filtration”
# as §2
# Measurement of the vesicular transport activity in case of ABCG2: More closely, as examples, inside-out membrane vesicles were incubated in the presence or absence of 4 mM ATP. […] The transport was stopped by addition of cold wash buffer (40 mM MOPS-Tris (pH 7.0), 70 mM KCl).
# The transport was stopped by addition of cold wash buffer (10 mM Tris-HCl, pH 7.4; 250 mM sucrose and 100 mM NaCl).
# For estrone-3-sulfate vesicular transport 10 mM Tris-HCl, (pH 7.4), 250 mM sucrose, and 10 mM MgCl2 containing buffer were incubated at 32° C. for 1 min. The transport was stopped by addition of cold wash buffer (10 mM Tris-HCl, pH 7.4; 250 mM sucrose and 100 mM NaCl).
# The incubation mix was then rapidly filtered through class B glass fiber filters (pore size, 0.1 μm). Filters were washed with 5×200 μl of ice cold wash buffer and radioactivity retained on the filter was measured by liquid scintillation counting. ATP-dependent transport was calculated by subtracting the values obtained in the absence of ATP from those in the presence of ATP.
# Exemplary Assay Design and Main Steps for ABCG2 • Prepare an appropriate concentration of membrane suspension in assay buffer; add the unlabeled and ^3H-labeled substrates to the suspension.
# R482G-ABCG2 = molecular target: T3, R482G-ABCG2 (Homo sapiens, UniProt Q9UNQ0, R482G); experiment: Vesicular MTX transport, Sf9 vesicles with R482G variant; type: biochemical; conditions: control and cholesterol-loaded Sf9 membrane vesicles
# T3 construct: made in house; host or cells: Sf9 cells infected with recombinant baculovirus
# T3 sequence (Q9UNQ0 1-655 R482G): T2 sequence (Q9UNQ0 1-655) with R482G
# Protocol: MTX uptake was measured at 100 μM MTX concentration for 5 min at 37° C. in membrane vesicles containing the human wild-type ABCG2 (WT), or R482G-ABCG2 (G) transporter.
# MTX and ESG uptake was measured for 5 min at 37° C. at 5 mM ATP in membrane vesicles containing the human wild-type ABCG2 (WT), or R482G-ABCG2 (G) transporter. […] The mean values±SD are presented.
# Vesicular transport studies: In these experiments we carried out direct, ATP-dependent substrate transport measurements by using isolated inside-out membrane vesicles of ABCG2-expressing Sf9 cells.
# ABCG2-R482T = molecular target: T4, ABCG2-R482T (Homo sapiens, UniProt Q9UNQ0, R482T); experiment: Vesicular MTX transport, Sf9 vesicles with R482T variant; type: biochemical; conditions: irrespective of the membrane cholesterol content
# T4 construct: made in house; host or cells: Sf9 cells infected with recombinant baculovirus
# T4 sequence (Q9UNQ0 1-655 R482T): T2 sequence (Q9UNQ0 1-655) with R482T
# wild-type ABCG2 [2] = molecular target: T2, wild-type ABCG2; conditions: 2 min
# Protocol: Following UV-irradiation, gel-electrophoresis and electroblotting, the labeled bands were visualized by Phospho-Imager.
# Isolated Sf9 cell membranes, containing the same amount of wild-type ABCG2 protein were loaded with cholesterol by preincubation with 4 mM C-CD, as described in the Methods. Cholesterol-loaded membrane vesicles contained 50 μg cholesterol/mg membrane protein, while the control membranes contained 8 μg cholesterol/mg membrane protein.
# humanBSEP, sequence (O95342 whole entry): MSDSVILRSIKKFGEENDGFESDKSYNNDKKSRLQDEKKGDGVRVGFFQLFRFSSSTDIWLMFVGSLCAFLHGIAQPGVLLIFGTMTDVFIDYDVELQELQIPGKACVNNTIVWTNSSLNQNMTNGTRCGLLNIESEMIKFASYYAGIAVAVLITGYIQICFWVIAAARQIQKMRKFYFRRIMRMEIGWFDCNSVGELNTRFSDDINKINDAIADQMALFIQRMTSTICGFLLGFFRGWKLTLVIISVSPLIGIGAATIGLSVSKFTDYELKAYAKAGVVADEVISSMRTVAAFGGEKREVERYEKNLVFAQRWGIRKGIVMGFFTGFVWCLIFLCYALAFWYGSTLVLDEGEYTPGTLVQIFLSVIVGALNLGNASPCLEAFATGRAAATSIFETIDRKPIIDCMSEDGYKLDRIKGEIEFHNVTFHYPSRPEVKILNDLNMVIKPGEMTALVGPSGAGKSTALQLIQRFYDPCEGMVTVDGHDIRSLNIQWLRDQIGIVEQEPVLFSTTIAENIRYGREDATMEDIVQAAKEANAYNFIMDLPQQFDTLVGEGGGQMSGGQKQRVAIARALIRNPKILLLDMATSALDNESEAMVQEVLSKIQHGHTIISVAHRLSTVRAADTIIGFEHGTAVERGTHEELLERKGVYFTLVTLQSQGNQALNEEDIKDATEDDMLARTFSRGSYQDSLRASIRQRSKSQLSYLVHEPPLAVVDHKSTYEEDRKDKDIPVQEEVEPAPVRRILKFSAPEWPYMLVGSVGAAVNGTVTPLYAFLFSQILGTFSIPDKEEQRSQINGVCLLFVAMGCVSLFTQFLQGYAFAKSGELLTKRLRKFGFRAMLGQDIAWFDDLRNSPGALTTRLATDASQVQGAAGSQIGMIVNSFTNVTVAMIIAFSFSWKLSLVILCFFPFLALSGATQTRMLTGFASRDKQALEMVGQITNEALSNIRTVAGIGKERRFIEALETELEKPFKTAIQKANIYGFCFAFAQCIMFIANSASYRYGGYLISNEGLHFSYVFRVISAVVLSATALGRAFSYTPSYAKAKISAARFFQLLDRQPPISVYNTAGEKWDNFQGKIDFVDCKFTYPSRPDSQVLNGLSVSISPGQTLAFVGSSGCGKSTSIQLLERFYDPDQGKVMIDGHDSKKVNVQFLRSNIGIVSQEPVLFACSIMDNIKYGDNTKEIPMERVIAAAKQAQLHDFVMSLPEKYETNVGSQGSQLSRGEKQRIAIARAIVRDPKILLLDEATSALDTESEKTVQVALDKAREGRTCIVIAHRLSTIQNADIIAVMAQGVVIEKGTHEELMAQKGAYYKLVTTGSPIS
smiles,measurement,setting,value
"C[C@H](CCC(=O)NCCS(=O)(=O)O)[C@H]1CC[C@H]2[C@@H]3[C@H](O)C[C@@H]4C[C@H](O)CC[C@]4(C)[C@H]3C[C@H](O)[C@]12C [TC, Taurocholic acid]",VMAX of taurocholate transport,humanBSEP; humanBSEP-Sf9 + Chol,323 pmol TC/mg prot/min
same,VMAX of taurocholate transport,humanBSEP; humanBSEP-Sf9 CTRL,169.4 pmol TC/mg prot/min
same,VMAX of taurocholate transport,mouseBsep; mouseBsep-Sf9 + Chol,1843 pmol TC/mg prot/min
same,VMAX of taurocholate transport,mouseBsep; mouseBsep-Sf9 CTRL,1199 pmol TC/mg prot/min
same,VMAX of taurocholate transport,ratBsep; ratBsep-Sf9 + Chol,121.3 pmol TC/mg prot/min
same,VMAX of taurocholate transport,ratBsep; ratBsep-Sf9 CTRL,14.54 pmol TC/mg prot/min
CN(Cc1cnc2nc(N)nc(N)c2n1)c1ccc(C(=O)N[C@@H](CCC(=O)O)C(=O)O)cc1 [methotrexate],Increase of Vmax of vesicular transport by cholesterol loading,wild-type ABCG2 [1],six-fold
same,MTX transport (in words),R482G-ABCG2,very low
same,MTX transport rate,ABCG2-R482T,below 50 pmoles/mg membrane protein/min
CC(C)CCC[C@@H](C)[C@H]1CC[C@H]2[C@@H]3CC=C4C[C@@H](O)CC[C@]4(C)[C@H]3CC[C@]12C [cholesterol],Increase of maximum transport rate of ABCG2 by increasing membrane cholesterol levels,wild-type ABCG2 [1]; human,up to 20 fold
same,mean relative value of ABCG2 labeling (basic level of nucleotide trapping) after cholesterol loading,wild-type ABCG2 [2],105%

# Reference: patent US8129197B2, “Cholesterol loaded insect cell membranes as test proteins” (SOLVO Biotechnológial ZRT., priority 2006, dated 2012)
